These results are taken from patent EP0145493A2, “11-Difluoromethyl and 11-fluoromethylene steroids” (THE UPJOHN COMPANY, priority 1983, dated 1985).

This experiment addresses T1, progesterone receptor (Oryctolagus cuniculus, UniProt P06186).
T1 construct: 'Rabbit, progesterone = 100%; from tissue; host or cells: Rabbit; From own knowledge, the cited Philibert procedure uses uterine cytosol
T1 sequence (P06186 1-930): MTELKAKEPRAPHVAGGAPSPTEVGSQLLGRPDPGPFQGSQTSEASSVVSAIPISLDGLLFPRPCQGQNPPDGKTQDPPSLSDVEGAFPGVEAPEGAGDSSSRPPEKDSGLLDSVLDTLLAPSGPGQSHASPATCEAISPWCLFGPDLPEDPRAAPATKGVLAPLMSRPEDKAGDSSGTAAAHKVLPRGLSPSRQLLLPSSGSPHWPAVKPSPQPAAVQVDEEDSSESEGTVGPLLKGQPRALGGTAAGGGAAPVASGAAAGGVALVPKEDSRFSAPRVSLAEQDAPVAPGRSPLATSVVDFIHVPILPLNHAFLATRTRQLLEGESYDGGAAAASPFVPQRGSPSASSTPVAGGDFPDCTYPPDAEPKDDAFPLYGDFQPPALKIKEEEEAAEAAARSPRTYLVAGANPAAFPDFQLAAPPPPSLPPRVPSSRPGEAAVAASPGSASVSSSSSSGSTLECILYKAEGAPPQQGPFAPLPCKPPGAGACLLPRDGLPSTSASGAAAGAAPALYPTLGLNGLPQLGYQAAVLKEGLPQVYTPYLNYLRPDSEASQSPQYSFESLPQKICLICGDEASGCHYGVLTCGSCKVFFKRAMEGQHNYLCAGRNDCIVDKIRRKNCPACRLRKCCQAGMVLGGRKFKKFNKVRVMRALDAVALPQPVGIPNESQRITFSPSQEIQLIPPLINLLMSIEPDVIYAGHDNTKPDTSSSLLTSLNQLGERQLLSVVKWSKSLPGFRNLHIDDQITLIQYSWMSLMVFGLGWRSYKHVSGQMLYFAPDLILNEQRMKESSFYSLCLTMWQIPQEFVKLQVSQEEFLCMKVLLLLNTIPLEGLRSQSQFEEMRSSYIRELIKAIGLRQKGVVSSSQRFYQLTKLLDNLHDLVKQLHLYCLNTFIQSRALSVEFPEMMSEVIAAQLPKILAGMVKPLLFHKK
The experiment is described as follows: progesterone receptor relative binding affinity (procedure of Philibert et al.). The conditions noted are these: Rabbit, progesterone = 100%. From the text:
Biological information in the form of progesterone receptor relative binding affinity data determined according to the procedure of D. Philibert et al, Endocrinology 101, 1850 (1977) set forth in TABLE 1 discloses the 11β-difluoromethyl and (E)-11-fluoromethylene steroids to be useful as progestins.
'Rabbit, progesterone = 100%

In the case of `CC#C[C@]1(O)CC[C@H]2[C@H]3[C@H]([C@@H](C(F)F)C[C@@]21C)[C@H]1CCC(=O)C=C1C[C@H]3C` [11β-Difluoromethyl-17β-hydroxy-7α-methyl-17α-propynylestr-4-en-3-one], the “Relative Binding Affinity' (%)” value is listed as 41%.
To `CC#C[C@]1(O)CC[C@H]2[C@@H]3CCC4C=CCC[C@@H]4[C@H]3[C@@H](C(F)F)C[C@@]21C` (stereo partly drawn) [11β-Difluoromethyl-17β-hydroxy-17α-propynylestr-3-ene] belongs 2%.
To `CC#CC1(OC(C)=O)CCC2C3CCC4=CC(=O)CCC4C3C(C(F)F)CC21C` (stereo not drawn) [11β-Difluoromethyl-17β-hydroxy-17α-propynylestr-4-en-3-one 17-acetate] belongs 49%.
With `CC#CC1(OC)CCC2C3CCC4=CC(=O)CCC4C3C(C(F)F)CC21C` (stereo not drawn) [11β-Difluoromethyl-17β-hydroxy-17α-propynylestr-4-en-3-one 17-methyl ether] the figure was 90%; with `CC#C[C@]1(O)CC[C@H]2[C@@H]3CCC4=CC(=O)CC[C@@H]4[C@H]3[C@@H](C(F)F)C[C@@]21C` [11β-Difluoromethyl-17β-hydroxy-17α-propynylestr-4-en-3-one], 68%; with `CC#C[C@]1(O)CC[C@H]2[C@@H]3CCC4=CCCC[C@@H]4[C@H]3[C@@H](C(F)F)C[C@@]21C` [11β-Difluoromethyl-17β-hydroxy-17α-propynylestr-4-ene], 3%.
As for `CO[C@H]1CC[C@H]2[C@@H]3CCC4=CC(=O)CC[C@@H]4[C@H]3[C@@H](C(F)F)C[C@]12C` [11β-Difluoromethyl-17β-hydroxyestr-4-en-3-one 17-methyl ether], the “Relative Binding Affinity' (%)” value is 66%.
`C[C@]12C[C@H](C(F)F)[C@H]3[C@@H](CCC4=CC(=O)CC[C@@H]43)[C@@H]1CC[C@@H]2O` [11β-Difluoromethyl-17β-hydroxyestr-4-en-3-one]: the “Relative Binding Affinity' (%)” value was 13%.
With `C#C[C@]1(O)CC[C@H]2[C@@H]3CCC4=CC(=O)CC[C@@H]4[C@H]3/C(=C/F)C[C@@]21CC` [13β-Ethyl-17α-ethynyl-(E)-11-fluoromethylene-17β-hydroxygon-4-en-3-one] the figure was 100%; with `CC#C[C@]1(O)CC[C@H]2[C@@H]3CCC4=CC(=O)CC[C@@H]4[C@H]3/C(=C/F)C[C@@]21CC` [13β-Ethyl-(E)-11-fluoromethylene-17β-hydroxy-17α-propynylgon-4-en-3-one], 63%.
With `CC#C[C@]1(O)CC[C@H]2[C@@H]3CCC4=CC(=O)CC[C@@H]4[C@H]3/C(=C\F)C[C@@]21CC` [13β-Ethyl-(Z)-11-fluoromethylene-17β-hydroxy-17α-propynylgon-4-en-3-one] the figure was 149%.
With `C#C[C@]1(O)CC[C@H]2[C@H]3[C@H]([C@@H](C(F)F)C[C@@]21C)[C@H]1CCC(=O)C=C1C[C@H]3C` [17α-Ethynyl-11β-difluoromethyl-17β-hydroxy-7α-methylestr-4-en-3-one] the figure was 63%; with `C#CC1(OC(C)=O)CCC2C3CCC4=CC(=O)CCC4C3C(C(F)F)CC21C` (stereo not drawn) [17α-Ethynyl-11β-difluoromethyl-17β-hydroxyestr-4-en-3-one 17-acetate], 50%; with `C#CC1(OC)CCC2C3CCC4=CC(=O)CCC4C3C(C(F)F)CC21C` (stereo not drawn) [17α-Ethynyl-11β-difluoromethyl-17β-hydroxyestr-4-en-3-one 17-methyl ether], 145%.
Regarding `C#CC1(O)CCC2C3CCC4=CC5(CCC4C3C(C(F)F)CC21C)SCCS5` (stereo not drawn) [17α-Ethynyl-11β-difluoromethyl-17β-hydroxyestr-4-ene-3-one 3-ethanedithiol ketal], the “Relative Binding Affinity' (%)” value is recorded as 92%.
To `C#C[C@]1(O)CC[C@H]2[C@@H]3CCC4=CCCC[C@@H]4[C@H]3[C@@H](C(F)F)C[C@@]21C` [17α-Ethynyl-11β-difluoromethyl-17β-hydroxyestr-4-ene] belongs 2%; to `C#C[C@]1(O)CC[C@H]2[C@H]3[C@H](/C(=C/F)C[C@@]21C)[C@H]1CCC(=O)C=C1C[C@H]3C` [17α-Ethynyl-(E)-11-fluoromethylene-17β-hydroxy-7α-methylestr-4-en-3-one], 34%; to `C#C[C@]1(O)CC[C@H]2[C@@H]3CCC4=CC(=O)CC[C@@H]4[C@H]3/C(=C/F)C[C@@]21C` [17α-Ethynyl-(E)-11-fluoromethylene-17β-hydroxyestr-4-en-3-one], 74%.
With `C#C[C@]1(O)CC[C@H]2[C@@H]3CCC4=CC(=O)CC[C@@H]4[C@H]3/C(=C\F)C[C@@]21C` [17α-Ethynyl-(Z)-11-fluoromethylene-17β-hydroxyestr-4-en-3-one], the “Relative Binding Affinity' (%)” value amounted to 149%.
To `CC#C[C@]1(O)CC[C@H]2[C@H]3[C@H](/C(=C/F)C[C@@]21C)[C@H]1CCC(=O)C=C1C[C@H]3C` [(E)-11-Fluoromethylene-17β-hydroxy-7α-methyl-17α-propynylestr-4-en-3-one] belongs 58%; to `CC#CC1(OC)CCC2C3CCC4=CC(=O)CCC4C3C(=CF)CC21C` (stereo not drawn) [(E)-11-Fluoromethylene-17β-hydroxy-17α-propynylestr-4-en-3-one 17-methyl ether], 71%; to `CC#C[C@]1(O)CC[C@H]2[C@@H]3CCC4=CC(=O)CC[C@@H]4[C@H]3/C(=C/F)C[C@@]21C` [(E)-11-fluoromethylene-17β-hydroxy-17α-propynylestr-4-ene-3-one], 18%.
To `CC#C[C@]1(O)CC[C@H]2[C@@H]3CCC4=CC(=O)CC[C@@H]4[C@H]3/C(=C\F)C[C@@]21C` [(Z)-11-Fluoromethylene-17β-hydroxy-17-propynylestr-4-en-3-one] belongs 150%.
